# How the values were obtained:
# caspase-3/7 = test: Caspase Glo assay, caspase-3/7; format: cell-based, human; conditions: 0.245 μM; at 16 and 24 h post treatment
# Method: (§1) Total protein was extracted and measured as described in Kamsteeg, et al., 2003, Oncogene 22:2611-2620. Activity of caspase 3/7 and caspase 9 was quantified using Caspase Glo assay (Promega).
# (§2) The activities of caspase-3/7 and caspase-9 were assessed at 2, 4, 6, 8, 16, and 24 hours post-treatment with TRX-E-002-1.
# [1] = test system: i.p. tumors of mCherry+OCSC1-F2 ovarian cancer cells; test: Intra-peritoneal ovarian cancer xenograft, primary disease dose response; format: in vivo, athymic nude mice
# Method: The Yale University Institutional Animal Care and Use Committee approved all in vivo studies described. Intra-peritoneal tumors were established in athymic nude mice using 4×10^6 mCherry+OCSC1-F2 ovarian cancer cells (Craveiro, et al., 2013, Cancer Med. 2:751-762). […] Establishment of i.p. tumors was confirmed by live imaging (In-Vivo FX PRO, Bruker Corp., Billerica, Mass.) prior to treatment. TRX-E-002-1 was prepared in 20% Captisol or Dexsolve and administered daily at 50 mg/kg or 100 mg/kg. Paclitaxel was given at 12 mg/kg q3d and Cisplatin at 5 mg/kg weekly. All treatments were given i.p. Tumor growth was monitored q3d by live imaging and response to treatment was assessed using ROI area.
# An intra-peritoneal (i.p.) recurrent ovarian cancer xenograft model established using ovarian cancer cells stably expressing mCherry fluorescence has been established. This allows the detection of i.p. tumors and real-time measurement of response during the course of treatment. This model recapitulates the clinical profile typically seen in patients with ovarian cancer and helps one answer three questions: (1) in vivo activity of TRX-E-002-1 against primary disease; (2) ability of TRX-E-002-1 given in combination with chemotherapy to prevent/delay recurrence; and (3) ability of TRX-E-002-1 given as maintenance after chemotherapy to prevent/delay recurrence.
# To determine activity against primary disease as well as to determine the maximum tolerated dose (MTD), a dose response study was performed. […] Animals however recovered from the distension upon cessation of treatment. […] Thus, the MTD was established at daily 100 mg/kg i.p. and this dose was employed for the succeeding studies employing combination treatment.
# caspase-9 = test: Caspase Glo assay, caspase-9; format: cell-based, human; conditions: 0.245 μM; at 16 and 24 h post treatment
# Method: as §1, §2
# OCSC2 spheroids = test: 3D spheroid integrity by kinetic imaging; format: cell-based, human; conditions: compared to the control; dose-dependent
# Method: CD44+/MyD88+ ovarian cancer stem cell clones (OCSC1 and OCSC2) and CD44−/MyD88− ovarian cancer cells (OCC1 and OCC2) were isolated from either tumor tissue or ascites obtained from patients diagnosed with stage III/IV serous ovarian cancer and propagated (Alvero, et al., 2009, Cell Cycle 8:158-166; Chefetz, et al., 2013, Cell Cycle 12:511-521). The epithelial nature of the isolated cells was determined by immunostaining for Ck18. Purity of the cultures based on CD44 expression by flow cytometry and chemoresistance were routinely tested. Stable expression of nuclear-restricted red fluorescent (in OCSCs) or green fluorescent proteins (in OCCs) was performed by transduction using NUCLIGHT® Red or Green Lentivirus Reagent (Essen Bioscience, Ann Arbor, Mich.). Spheroids were formed from OCSCs by culturing in ultra-low attachment multi-well plates (Corning, Inc., Corning, N.Y.).
# Spheroids represent a 3D in vitro tumor model of multiple cell layers that mimic tumors in vivo. In ovarian cancer, spheroid cultures not only mimic ovarian solid tumors, but also ovarian cancer cells found in malignant ascites. Spheroid cultures allow one to test the capacity of compounds to diffuse through multiple layers of cells and induce cell death. It further allows one to test the efficacy of treatment against the mesenchymal cancer subtype. […]
# [2] = test system: OCC1 (CD44-/MyD88- ovarian cancer cells); test: IC50 against chemosensitive ovarian cancer cells OCC1; format: cell-based, human; conditions: read-out: IC50 (percentage of viable cells)
# Method: CD44+/MyD88+ ovarian cancer stem cell clones (OCSC1 and OCSC2) and CD44−/MyD88− ovarian cancer cells (OCC1 and OCC2) were isolated from either tumor tissue or ascites obtained from patients diagnosed with stage III/IV serous ovarian cancer and propagated (Alvero, et al., 2009, Cell Cycle 8:158-166; Chefetz, et al., 2013, Cell Cycle 12:511-521). The epithelial nature of the isolated cells was determined by immunostaining for Ck18. Purity of the cultures based on CD44 expression by flow cytometry and chemoresistance were routinely tested. […]
# Effect of each compound on cell morphology, growth, and viability was assessed using a kinetic live cell imaging system (Incucyte, Essen Bioscience). Proliferation was calculated as previously described (Alvero, et al., 2011, Mol. Cancer Ther. 10:1385-1393) using metrics from either confluence or fluorescent count from nuclear-restricted RFP or GFP. Cell death was quantified; similarly CELLTOX® Green Cytotoxicity Assay (Promega, Madison, Wis.). IC50 was calculated as described using GraphPad Prism (GraphPad Software Inc., LaJolla, Calif.).
# Once the efficacy of TRX-E-002-1 against chemoresistant OCSC was established, its activity against two clones of chemosensitive ovarian cancer cells (OCC1 and OCC2) was determined.
compound,measurement,setting,value
"COc1cc(C2COc3c(ccc(O)c3C)C2c2ccc(O)cc2)cc(OC)c1O (single isomer, unassigned) [TRX-E-002-1]",caspase-3/7 activity,caspase-3/7,significant increase
same,tumor burden compared to vehicle control,"[1]; 50 mg/kg daily i.p., starting at day 14",significant reduction
same,residual disease at completion of the treatment,[1]; 100 mg/kg daily i.p.,very little residual disease
same,p-c-Jun and total c-Jun in residual tumors,"[1]; 100 mg/kg daily i.p., Western blot",upregulation
same,tumor burden compared to vehicle control,"[1]; 100 mg/kg daily i.p., starting at day 10",significant reduction
same,tumor burden,"[1]; 150 mg/kg i.p. three times weekly, by the 10th dose",significant decrease
same,caspase-9 activity,caspase-9,significant increase
same,amount of intact spheroids,OCSC2 spheroids,significantly decreased
same,IC50,[2],68 nM
